Values joined by “and” are separate entries in the source; they are usually repeats but may differ in a detail not shown here. Identical values can stand only once. Non-standard residues stand in square brackets, D forms with d. Residues, ends and D or L forms follow the SMILES beside them. *: point of attachment. X1 = N#Cc1cc(C(=O)*)ccn1; AEEA = NCCOCCOCC(=O)O; Ahx = NCCCCCC(=O)O
Assays:
A. baumannii 5075D = format: cell-based, Acinetobacter baumannii; conditions: polymyxin-dependent resistant isolate; disc diffusion (EUCAST), 40 μM per disk, inoculum McFarland 0.5 (~10^8 CFU/ml), 18 h at 37°C; volume per disk corrected by Mw equivalent to 40 ug of LASP-072
Method: (§1) According to the EUCAST guidelines ([Eucast, E.C.O.a.S.T., 2021]), the inoculum was standardized in sterile saline to the density of a McFarland 0.50 ± 0.02 standard, corresponding to ∼10^8 CFU/ml of each isolate. The freshly prepared bacterial suspension was evenly inoculated onto agar plates and disks containing 40 μM of peptide-PNA conjugates were applied within 15 min. The diameter of inhibition zones was measured after incubation for 18 h at 37°C. Polymyxin B (40 μM/disk) was employed as the control.
(§2) The selected peptide sequences are known for their antimicrobial activity ([Le et al., 2017]). Therefore, we evaluated the antimicrobial activity of synthesized peptide-PNA conjugates using the Disc Diffusion Assay (DDA) against a panel of MDR Gram-negative bacteria consisting of P. aeruginosa, A. baumannii, K. pneumoniae, E. coli, including the isolates highly polymyxin-resistant A. baumannii 5075R, and A. baumannii 5075D (Figure 4 and Supplementary Table S1). […] Therefore, we further synthesized 10-mer PNAs targeting four bacterial essential genes anti-rpoA LASP-095 ([Abushahba et al., 2016]), anti-murA LASP-096 ([Goh et al., 2009]; [Mondhe et al., 2014]), anti-acpP LASP-097 ([Hansen et al., 2016]), and anti-rpoD LASP-119 ([Bai et al., 2012]; [Alajlouni and Seleem, 2013]). During the synthesis of the next set of peptide-PNA conjugates, we switched the direction of the conjugation handles to investigate the impact on the efficiency of conjugation. Here, PNAs were synthesized with an N-terminal CINA moiety (LASP-095, 096, 097 and 119, Table 1) and a polymyxin analogue (LASP-072, Table 1) was synthesized containing an N-terminal cysteine residue (Supplementary Figure S3).
Table S1: Inhibition zone (mm) for peptide, PNA, and peptide-PNA conjugates
Zone of inhibition diameter (mm)
Mw equivalent Pa Ab Kp Ab Ab

[1] = system: Klebsiella pneumoniae ATCC 700721; conditions: disc diffusion (EUCAST), 40 μM per disk, inoculum McFarland 0.5 (~10^8 CFU/ml), 18 h at 37°C; volume per disk corrected by Mw equivalent to 40 ug of LASP-072
Method: as §1
(§3) The selected peptide sequences are known for their antimicrobial activity ([Le et al., 2017]). Therefore, we evaluated the antimicrobial activity of synthesized peptide-PNA conjugates using the Disc Diffusion Assay (DDA) against a panel of MDR Gram-negative bacteria consisting of P. aeruginosa, A. baumannii, K. pneumoniae, E. coli, including the isolates highly polymyxin-resistant A. baumannii 5075R, and A. baumannii 5075D (Figure 4 and Supplementary Table S1). […] During the synthesis of the next set of peptide-PNA conjugates, we switched the direction of the conjugation handles to investigate the impact on the efficiency of conjugation. […]
Figure S9: The inhibition zone (mm) of all peptides, PNA and peptide-PNA conjugates
against Klebsiella pneumoniae ATCC 700721 at a concentration of 40 μM.

A. baumannii 5075 = conditions: 40 μM per disk; for Zone of inhibition diameter, Ab 5075: disc diffusion (EUCAST), inoculum McFarland 0.5 (~10^8 CFU/ml), 18 h at 37°C, volume per disk corrected by Mw equivalent to 40 ug of LASP-072
Method: as §1, §3
Figure S11: The inhibition zone (mm) of all peptides, PNA and peptide-PNA conjugates
against A. baumannii 5075 at a concentration of 40 μM. […]

A. baumannii ATCC 17978 = conditions: disc diffusion (EUCAST), 40 μM per disk, inoculum McFarland 0.5 (~10^8 CFU/ml), 18 h at 37°C; volume per disk corrected by Mw equivalent to 40 ug of LASP-072
Method: as §1, §3
Figure S8: The inhibition zone (mm) of all peptides, PNA and peptide-PNA conjugates
against A. baumannii ATCC 17978 at a concentration of 40 μM. […]

E. coli DH5α = conditions: disc diffusion (EUCAST), 40 μM per disk, inoculum McFarland 0.5 (~10^8 CFU/ml), 18 h at 37°C; volume per disk corrected by Mw equivalent to 40 ug of LASP-072
Method: as §1
(§4) The selected peptide sequences are known for their antimicrobial activity ([Le et al., 2017]). Therefore, we evaluated the antimicrobial activity of synthesized peptide-PNA conjugates using the Disc Diffusion Assay (DDA) against a panel of MDR Gram-negative bacteria consisting of P. aeruginosa, A. baumannii, K. pneumoniae, E. coli, including the isolates highly polymyxin-resistant A. baumannii 5075R, and A. baumannii 5075D (Figure 4 and Supplementary Table S1). […] During the synthesis of the next set of peptide-PNA conjugates, we switched the direction of the conjugation handles to investigate the impact on the efficiency of conjugation.
Figure S10: The inhibition zone (mm) of all peptides, PNA and peptide-PNA conjugates
against E. coli DH5α at a concentration of 40 μM. […]

A. baumannii 5075R = conditions: polymyxin-resistant isolate; disc diffusion (EUCAST), 40 μM per disk, inoculum McFarland 0.5 (~10^8 CFU/ml), 18 h at 37°C; volume per disk corrected by Mw equivalent to 40 ug of LASP-072
Method: as §1, §3
Figure S12: The inhibition zone (mm) of all peptides, PNA and peptide-PNA conjugates
against A. baumannii 5075R at a concentration of 40 μM.

P. aeruginosa ATCC 27853 = conditions: disc diffusion (EUCAST), 40 μM per disk, inoculum McFarland 0.5 (~10^8 CFU/ml), 18 h at 37°C; volume per disk corrected by Mw equivalent to 40 ug of LASP-072
Method: as §1, §4
Figure S7: The inhibition zone (mm) of all peptides, PNA and peptide-PNA conjugates
against P. aeruginosa ATCC 27853 at a concentration of 40 μM. […]

[2] = system: panel of MDR Gram-negative bacteria consisting of P. aeruginosa, A. baumannii, K. pneumoniae, E. coli; assay: Disc diffusion assay, statements for the whole panel; format: cell-based; conditions: 40 μM per disk, 18 h at 37°C, statement of the text for the whole panel
Method: as §1, §2

Compound | Zone of inhibition diameter, Ab 5075 D (A. baumannii 5075D) | Zone of inhibition diameter, Kp ATCC 700721 [1] | Zone of inhibition diameter, Ab 5075 (A. baumannii 5075) | Zone of inhibition diameter, Ab ATCC 17978 (A. baumannii ATCC 17978) | Zone of inhibition diameter, E. coli DH5α (E. coli DH5α) | Zone of inhibition diameter, Ab 5075 R (A. baumannii 5075R) | Zone of inhibition diameter, Pa ATCC 27853 (P. aeruginosa ATCC 27853) | Bacterial growth in the presence of the conjugate (polymyxin-dependent phenotype) (A. baumannii 5075; disc diffusion, result in words) | Diameter of inhibition zones over the panel of bacteria [2]
N#Cc1cc(C(=O)NCCCC[C@H](NC(=O)COCCOCCNC(=O)[C@H](CCCNC(=N)N)NC(=O)CCCCCNC(=O)[C@H](CCCNC(=N)N)NC(=O)[C@H](CCCNC(=N)N)NC(=O)CCCCCNC(=O)[C@H](CCCNC(=N)N)NC(=O)[C@H](CCCNC(=N)N)NC(=O)CCCCCNC(=O)[C@H](CCCNC(=N)N)NC(=O)[C@H](CCCNC(=N)N)NC(=O)CCCCCNC(=O)[C@@H](N)CCCNC(=N)N)C(N)=O)ccn1 [LASP-054] (H-R[Ahx]RR[Ahx]RR[Ahx]RR[Ahx]R[AEEA]K(X1)-NH2) | 9 mm | 8 mm | 8 mm | 9 mm | 9 mm | 8 mm | 0 mm | – | –
CINA-PEG-Gly-Lys-Pro-Arg-Pro-Tyr-Ser-Pro-Arg-Pro-Thr-Ser-His-Pro-Arg-Pro-Ile-Arg-Arg-NH2 [LASP-077] | 0 mm | 0 mm | 0 mm | 0 mm | 0 mm | 0 mm | 0 mm | – | –
CINA-PEG-Gly-Lys-Pro-Arg-Pro-Tyr-Ser-Pro-Arg-Pro-Thr-Ser-His-Pro-Arg-Pro-Ile-Arg-Arg-NH2 [LASP-084] | 7 mm and 8 mm | 0 mm | – | 0 mm | 8 mm | 0 mm | 0 mm | greater bacterial growth | –
CINA-PEG-OctGly-Dab-Thr-Dab-Dab ^b -Dab-D-Phe-Leu-Dab-Dab-Thr ^b (lariat or depsi) [LASP-026] | 9 mm | 13 mm | 13 mm | 13 mm | 15 mm | 11 mm | 14 mm | – | –
CINA-PEG-Val-Cys ^c -Lys-Arg-trp-Lys-Lys-Trp-Lys-Arg-Lys-Trp-Lys-Lys-Trp-Cys ^c -Val-NH2 (sidechain bridge or staple) [LASP-086] | 0 mm | 0 mm | 0 mm | 0 mm | 0 mm | 0 mm | 0 mm | – | No zone of bacterial growth inhibition
CINA-PEG-Val-Cys ^d -Lys-Arg-trp-Lys-Lys-Trp-Lys-Arg-Lys-Trp-Lys-Lys-Trp-Cys ^d -Val-NH2 (disulfide) [LASP-088] | – | 0 mm | 7 mm and 8 mm | 0 mm | 8 mm | 0 mm | 0 mm | – | –
Cys-PEG-OctGly-Dab-Thr-Dab-Dab ^b -Dab-D-Phe-Leu-Dab-Dab-Thr ^b (lariat or depsi) [LASP-130] | 0 mm | 9 mm | 10 mm | 9 mm | 12 mm | 7 mm | 9 mm | – | 11–14 mm
H-Arg-Acp-Arg-Arg-Acp-Arg-Arg-Acp-Arg-Arg-Acp-Arg-PEG-Lys (CINA)-NH2 [LASP-058] | 0 mm | 0 mm | 0 mm | 0 mm | 0 mm | 0 mm | 0 mm | – | No zone of bacterial growth inhibition

— paper PMC8964499, “An Efficient Approach for the Design and Synthesis of Antimicrobial Peptide-Peptide Nucleic Acid Conjugates” (Frontiers in Chemistry, 2022)
